Source: ChEMBL document CHEMBL5352412, “Discovery of 1,2-diphenylethene derivatives as human DNA topoisomerase II catalytic inhibitors and antitumor agents” (Eur J Med Chem, 2022)

Key:
[1] = test system: MDA-MB-231; assay: Antiproliferative activity against human MDA-MB-231 cells incubated for 72 hrs by CCK8 assay; format: functional, cell-based; conditions: Homo sapiens, MDA-MB-231, 72 h
[2] = target: T1, DNA topoisomerase 2-alpha (Homo sapiens, UniProt P11388); assay: Inhibition of human topoisomerase 2-alpha assessed as reduction in relaxation of pBR322 DNA at 100 uM measured after 30 mins by agarose gel electrophoresis method relative to control
T1 sequence (P11388 whole entry): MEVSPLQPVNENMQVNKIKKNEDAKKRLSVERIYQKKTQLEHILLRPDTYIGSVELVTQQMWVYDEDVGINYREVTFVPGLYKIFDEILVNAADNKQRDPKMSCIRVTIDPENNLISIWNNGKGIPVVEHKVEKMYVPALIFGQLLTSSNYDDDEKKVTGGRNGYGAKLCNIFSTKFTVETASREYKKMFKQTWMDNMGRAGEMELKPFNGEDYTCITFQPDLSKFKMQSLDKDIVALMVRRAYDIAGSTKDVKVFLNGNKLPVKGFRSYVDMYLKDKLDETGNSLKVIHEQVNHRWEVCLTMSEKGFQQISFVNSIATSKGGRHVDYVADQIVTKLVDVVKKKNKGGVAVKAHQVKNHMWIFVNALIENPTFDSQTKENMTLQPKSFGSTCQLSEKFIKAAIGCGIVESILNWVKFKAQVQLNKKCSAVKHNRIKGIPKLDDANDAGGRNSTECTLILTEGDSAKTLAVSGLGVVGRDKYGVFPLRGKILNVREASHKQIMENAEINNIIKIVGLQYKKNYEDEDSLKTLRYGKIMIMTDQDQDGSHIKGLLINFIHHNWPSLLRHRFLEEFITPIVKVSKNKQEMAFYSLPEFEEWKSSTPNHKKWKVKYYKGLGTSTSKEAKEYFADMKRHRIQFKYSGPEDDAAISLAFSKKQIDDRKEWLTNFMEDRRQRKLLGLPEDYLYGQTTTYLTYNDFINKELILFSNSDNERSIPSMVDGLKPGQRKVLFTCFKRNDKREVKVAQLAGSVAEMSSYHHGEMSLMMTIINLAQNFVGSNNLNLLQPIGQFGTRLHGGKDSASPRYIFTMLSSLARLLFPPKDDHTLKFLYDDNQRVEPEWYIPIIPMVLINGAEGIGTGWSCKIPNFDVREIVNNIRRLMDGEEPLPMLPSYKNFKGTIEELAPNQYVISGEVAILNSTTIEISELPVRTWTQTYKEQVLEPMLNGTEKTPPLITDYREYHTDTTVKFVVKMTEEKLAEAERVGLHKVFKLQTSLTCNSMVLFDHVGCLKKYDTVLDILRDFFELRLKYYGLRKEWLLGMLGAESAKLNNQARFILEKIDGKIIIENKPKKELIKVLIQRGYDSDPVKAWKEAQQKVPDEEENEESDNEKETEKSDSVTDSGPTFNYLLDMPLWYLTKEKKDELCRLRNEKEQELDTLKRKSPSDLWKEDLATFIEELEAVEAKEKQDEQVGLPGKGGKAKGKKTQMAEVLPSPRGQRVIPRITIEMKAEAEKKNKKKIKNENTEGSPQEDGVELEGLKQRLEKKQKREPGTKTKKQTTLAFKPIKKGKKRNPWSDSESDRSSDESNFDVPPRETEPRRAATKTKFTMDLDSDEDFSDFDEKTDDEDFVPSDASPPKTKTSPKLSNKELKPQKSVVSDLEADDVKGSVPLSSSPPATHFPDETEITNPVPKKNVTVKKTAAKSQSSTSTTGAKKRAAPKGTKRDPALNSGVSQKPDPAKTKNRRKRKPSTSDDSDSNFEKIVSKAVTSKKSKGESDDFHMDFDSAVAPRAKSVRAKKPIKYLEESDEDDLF

[3] = target: T1, DNA topoisomerase 2-alpha; assay: Inhibition of human topoisomerase 2-alpha assessed as reduction in relaxation of pBR322 DNA at 25 uM measured after 30 mins by agarose gel electrophoresis method relative to control
[4] = test system: HepG2; assay: Antiproliferative activity against human HepG2 cells incubated for 72 hrs by CCK8 assay; format: functional, cell-based; conditions: Homo sapiens, HepG2, 72 h

| SMILES | IC50 [1] [µM] | inhibition [2] [%] | inhibition [3] [%] | IC50 [4] [µM] |
| --- | --- | --- | --- | --- |
| Oc1ccc2cc(-c3ccc(Cl)cc3Cl)cnc2c1 | 16.7 |  |  |  |
| COc1cc(OC)cc(C(=O)Nc2ccc(NC(=O)CCc3ccccc3)cc2)c1 |  | 3.7 |  |  |
| O=C(CCc1ccccc1)Nc1ccc(NC(=O)c2cc(O)cc(O)c2)cc1 |  | 54.5 | 4.1 |  |
| Oc1ccc(-c2cc(/C=C/c3cc(O)cc(O)c3)ccc2O)cc1 | 39.2 | 64 | 17.6 |  |
| CNC(=O)/C=C/c1cc(/C=C/c2cc(O)cc(O)c2)ccc1O |  | 45 | 2.4 |  |
| O=C(/C=C/c1ccc(O)c(/C=C/c2cc(O)cc(O)c2)c1)N1CCCCC1 | 19.8 | 91.3 | 18.3 |  |
| Oc1ccc(-c2ccc(O)c(/C=C/c3cc(O)cc(O)c3)c2)cc1 | 15.4 | 86.3 | 75.4 | 30 |
| O=C(/C=C/c1ccc(/C=C/c2cc(O)cc(O)c2)cc1)N1CCCCC1 | 5.7 | 71.1 | 6.9 | 14 |
| C/C=C/C(=O)Nc1ccc(O)c(/C=C/c2cc(O)cc(O)c2)c1 |  | 52.7 | 0.6 |  |
| O=C(/C=C/c1ccccc1)Nc1ccc(CCc2cc(O)cc(O)c2)cc1 | 4.2 | 11.3 |  | 2.8 |
| COc1ccc2cc(-c3ccc(NC(=O)/C=C/c4ccccc4)cc3)cnc2c1 | 39.5 | 0.1 |  | 37.4 |
| Oc1cc(O)cc(/C=C/c2ccc(O)c(-c3ccccc3)c2)c1 | 42.4 | 87.2 | 10.5 |  |
| COc1ccc2cc(-c3ccc(NC(=O)CCc4ccccc4)cc3)ccc2c1 |  | 0 |  |  |
| Oc1cc(O)cc(/C=C/c2ccc(-c3ccsc3)cc2)c1 | 19.1 | 78.5 | 63.2 | 31.9 |
| Oc1cc(O)cc(/C=C/c2ccc(O)c(-c3cccc(O)c3)c2)c1 | 42.3 | 72.1 | 34.5 |  |
| O=C(/C=C/c1ccccc1)Nc1ccc(-c2nc3ccc(O)cc3s2)cc1 | 15.9 | 87.4 | 43.2 | 5.3 |
| O=C(/C=C/c1ccccc1)Nc1ccc(NC(=O)c2cc(O)cc(O)c2)cc1 |  | 67.2 | 27.1 | 36.6 |
| O=C(/C=C/c1ccccc1)Nc1ccc(-c2cnc3cc(O)ccc3c2)cc1 |  | 82.3 | 55.4 |  |
| Oc1cc(O)cc(/C=C/c2ccc(-c3ccccc3)cc2)c1 | 10.5 | 81.2 | 12.2 | 18 |
| CCCNC(=O)/C=C/c1cc(/C=C/c2cc(O)cc(O)c2)ccc1O |  | 59.6 | 1.7 |  |
| COc1cc(/C=C/c2ccc(NC(=O)/C=C/c3ccccc3)cc2)cc(OC)c1 |  | 15.3 | 0.1 |  |
| Oc1cc(O)cc(/C=C/c2ccc(O)c(-c3ccsc3)c2)c1 | 22.6 | 86.8 | 15.2 | 34 |
| O=[N+]([O-])c1cccc(-c2ccc(/C=C/c3cc(O)cc(O)c3)cc2)c1 | 11.4 | 68.7 | 55.3 | 16.2 |
| Oc1cc(O)cc(/C=C/c2ccc(-c3ccoc3)cc2)c1 | 27.5 | 66.1 | 30.4 | 24.5 |
| Oc1cc(O)cc(/C=C/c2cc(-c3cccc(O)c3)ccc2O)c1 | 31.2 | 90.7 | 79.3 | 29.1 |
| Oc1cc(O)cc(/C=C/c2ccc(-c3cccc(O)c3)cc2)c1 | 11.3 | 82.9 | 63.2 | 18 |
| O=[N+]([O-])c1cccc(-c2ccc(O)c(/C=C/c3cc(O)cc(O)c3)c2)c1 | 12.6 | 95.5 | 75.4 | 18.6 |
| Oc1cc(O)cc(/C=C/c2cc(-c3ccsc3)ccc2O)c1 | 9.5 | 88.4 | 75.2 | 8.2 |

| SMILES | IC50 [1] [µM] | inhibition [2] [%] | inhibition [3] [%] | IC50 [4] [µM] |
| --- | --- | --- | --- | --- |
| C/C=C/C(=O)Nc1ccc(/C=C/c2cc(O)cc(O)c2)cc1 | 3.8 | 12.5 | 0.4 | 4.6 |
| O=C(CCc1ccccc1)Nc1ccc(-c2nc3ccc(O)cc3s2)cc1 | 12.1 | 86.8 | 7.5 | 4 |
| Oc1cc(O)cc(/C=C/c2cc(-c3ccccc3)ccc2O)c1 | 7.2 | 87.9 | 81.3 | 9.5 |
| O=C(/C=C/c1ccccc1)Nc1ccc(O)c(/C=C/c2cc(O)cc(O)c2)c1 | 24.7 | 98.1 | 61.5 |  |
| COc1cc(CCc2ccc(NC(=O)CCc3ccccc3)cc2)cc(OC)c1 | 12 | 1.2 |  | 3.5 |
| NC(=O)/C=C/c1ccc(/C=C/c2cc(O)cc(O)c2)cc1 |  | 29.8 | 3.9 |  |
| COc1ccc2nc(-c3ccc(NC(=O)CCc4ccccc4)cc3)sc2c1 |  | 0 |  |  |
| O=C(/C=C/c1cc(/C=C/c2cc(O)cc(O)c2)ccc1O)N1CCCCC1 | 16.7 | 84.5 | 7.1 | 30 |
| CNC(=O)/C=C/c1ccc(O)c(/C=C/c2cc(O)cc(O)c2)c1 |  | 63.5 | 1.2 |  |
| O=C(CCc1ccccc1)Nc1ccc(/C=C/c2cc(O)cc(O)c2)cc1 | 33.9 | 62.5 | 16.4 | 14.5 |
| O=C(/C=C/c1ccccc1)Nc1cc(/C=C/c2cc(O)cc(O)c2)ccc1O | 13.6 | 94.5 | 79.5 | 24.3 |
| O=C(CCc1ccccc1)Nc1ccc(CCc2cc(O)cc(O)c2)cc1 | 4.6 | 9.1 |  | 2.9 |
| CN(C)C(=O)/C=C/c1ccc(/C=C/c2cc(O)cc(O)c2)cc1 | 19.9 | 47.8 | 0.1 |  |
| CNC(=O)/C=C/c1ccc(/C=C/c2cc(O)cc(O)c2)cc1 |  | 29.7 | 2.3 |  |
| COc1ccc2cc(-c3ccc(NC(=O)/C=C/c4ccccc4)cc3)ccc2c1 |  | 0.1 |  |  |
| O=[N+]([O-])c1cccc(-c2cc(/C=C/c3cc(O)cc(O)c3)ccc2O)c1 | 33.2 | 93.6 | 97.1 |  |
| Oc1ccc(-c2ccc(/C=C/c3cc(O)cc(O)c3)cc2)cc1 | 7.8 | 83.8 | 57.1 | 10.6 |
| C/C=C/C(=O)Nc1cc(/C=C/c2cc(O)cc(O)c2)ccc1O | 21.1 | 9.9 | 0.2 | 32 |
| COc1cc(OC)cc(C(=O)Nc2ccc(NC(=O)/C=C/c3ccccc3)cc2)c1 |  | 2.1 |  |  |
| NC(=O)/C=C/c1ccc(O)c(/C=C/c2cc(O)cc(O)c2)c1 |  | 76.6 | 18.4 |  |
| COc1cc(/C=C/c2ccc(NC(=O)CCc3ccccc3)cc2)cc(OC)c1 | 7.2 | 0.2 |  | 10.9 |
| COc1ccc2nc(-c3ccc(NC(=O)/C=C/c4ccccc4)cc3)sc2c1 |  | 36.7 | 0 |  |
| Oc1cc(O)cc(/C=C/c2ccc(O)c(-c3ccoc3)c2)c1 | 26.6 | 77.4 | 12.6 | 36.8 |
| O=C(CCc1ccccc1)Nc1ccc(-c2cnc3cc(O)ccc3c2)cc1 |  | 9.7 |  |  |
| COc1ccc2cc(-c3ccc(NC(=O)CCc4ccccc4)cc3)cnc2c1 | 21.1 | 19.7 | 0 |  |
| COc1cc(CCc2ccc(NC(=O)/C=C/c3ccccc3)cc2)cc(OC)c1 | 21.8 | 0.04 |  |  |
| COc1ccc2nc(-c3ccc(N)cc3)sc2c1 | 37.2 |  |  |  |
